The NIST ThermoML archive (doi:10.1021/acs.jced.6b00828)
Numbers after ± are expanded uncertainties.

Test: wn = mass fraction of the nth substance listed
Conditions: 323.15 K, 101.3 kPa, Liquid, Vibrating tube method

**Q.** With `[Cl-].[Cl-].[Mg+2]` [magnesium chloride] + O as the compound, how does the mass density (w1 = 0.3732) read?
**A.** 1343.2 ± 0.9 kg/m3

**Q.** With `O=[PH2][O-].O=[PH2][O-].[Mg+2]` [magnesium hypophosphite] + O as the compound, how does the mass density (w1 = 0.2243) read?
**A.** 1167.5 ± 0.4 kg/m3

**Q.** With `O=[PH2][O-].[Na+]` [sodium phosphinate] + O as the compound, how does the mass density (w1 = 0.5786) read?
**A.** 1438.8 ± 1.1 kg/m3
